Measurements taken from US11760773B2, “Small molecule drug conjugates of gemcitabine monophosphate” (MaveriX Oncology, Inc., priority 2018, dated 2023).
Blank lines part the entries; values can stand above or below the compound they belong to.

Legend:
UT-SCC-9 = assay: Tumor cell proliferation (alamarBlue) cytotoxicity assay, UT-SCC-9; assay type: cell-based, human; conditions: Homo sapiens; UT-SCC-9, 72 hours treatment
Procedure: (§1) A tumor cell proliferation assay was used to determine cytotoxicity IC50 values for the phosphate prodrug Compounds 1-9, the parent non-phosphorylated SMDC parent compounds, and the effector (gemcitabine) across eight primary early-passage human head and neck squamous cell carcinoma cell lines including UT-SCC-5, UT-SCC-8, UT-SCC-9, UT-SCC-10, UT-SCC-14, UT-SCC-16A, UT-SCC-16B, and UT-SCC-24A.
(§2) UTSCC cells were seeded at 4000 cells/100 I/well on 96-well black clear-bottom tissue culture plate. Cells were incubated at 37° C. and 5% CO2 overnight to allow them to recover and re-attach. The next day cells were treated with the test compound (0-100 μM) for 72 hours. After treatment, cell proliferation was measured by Fluorescent quantitation of alamarBlue reagent. The alamarBlue assay incorporates a fluorometric/colorimetric growth indicator based on detection of metabolic activity. Specifically, resazurin, the active ingredient of alamarBlue reagent, is blue in color and virtually non-fluorescent. Upon entering cells, resazurin is reduced to resorufin, a compound that is red in color and highly fluorescent.
(§3) Continued cell growth maintains a reduced environment, therefore increasing the overall fluorescence and color of the media surrounding cells. The fluorescence intensity of alamarBlue reagent was directly proportional to cell number. To perform the alamarBlue assay, 10 I of alamarBlue reagent was added to each well and the plate was incubated at 37° C. for an additional 2 hour. Fluorescence intensity was measured at an excitation of 530 nm and an emission of 590 nm using a BioTek Synergy™ 2 microplate reader.
(§4) Cell proliferation assays in triplicate were performed at each concentration. The fluorescent intensity data were analyzed using the computer software, Graphpad Prism. In the absence of the compound, the fluorescent intensity (Ft) in each data set was defined as 100%. In the absence of cells, the fluorescent intensity (Fb) in each data set was defined as 0%. The percent cell in the presence of each compound was calculated according to the following equation: % cell=(F−Fb)/(Ft−Fb), where F=the fluorescent intensity in the presence of the compound, Fb=the fluorescent intensity in the absence of cells, and Ft=the fluorescent intensity in the absence of the compound. The values of % cell versus a series of compound concentrations were then plotted using non-linear regression analysis of Sigmoidal dose-response curve generated with the equation Y=B+(T−B)/1+10^((Log EC50-X)×Hill Slope) where Y=percent cell, B=minimum percent cell, T=maximum percent cell, X=logarithm of compound and Hill Slope=slope factor or Hill coefficient. The IC50 value was determined by the concentration causing a half-maximal percent activity.

UT-SCC-10 = assay: Tumor cell proliferation (alamarBlue) cytotoxicity assay, UT-SCC-10; assay type: cell-based, human; conditions: Homo sapiens; UT-SCC-10, 72 hours treatment
Procedure: as §1, §2, §3, §4

UT-SCC-14 = assay: Tumor cell proliferation (alamarBlue) cytotoxicity assay, UT-SCC-14; assay type: cell-based, human; conditions: Homo sapiens; UT-SCC-14, 72 hours treatment
Procedure: as §1, §2, §3, §4

UT-SCC-16A = assay: Tumor cell proliferation (alamarBlue) cytotoxicity assay, UT-SCC-16A; assay type: cell-based, human; conditions: Homo sapiens, 72 hours treatment
Procedure: as §1, §2, §3, §4

UT-SCC-16B = assay: Tumor cell proliferation (alamarBlue) cytotoxicity assay, UT-SCC-16B; assay type: cell-based, human; conditions: Homo sapiens, 72 hours treatment
Procedure: as §1, §2, §3, §4

[1] = Plasma PK of Int 3-3 in CD-1 mice (study c); assay type: in vivo; conditions: after iv Int 3-3 8.8 mg/kg
Procedure: Objectives: to determine the plasma pharmacokinetics of Int 3-3 following a single intravenous infusion of Int 3-3 at 8.83 mg/kg in CD-1 mice
PK measurements: compare PK parameters C0, CL, Vdss, Cmax, tmax, t1/2, AUC(0-t), AUC(0-inf), MRT(0-t), MRT(0-inf) for Int 3-3.

[2] = Int 1-4 plasma PK in the male cynomolgus monkey (study f); assay type: in vivo; conditions: for MRT inf: read-out: MRT0-inf; for MRT last: read-out: MRT0-last; for Vd: read-out: Vdss
Procedure: Objectives: to compare the plasma pharmacokinetics and stability of Int 1-4 in plasma following single intravenous infusion administration of Int 1-4 at 5 mg/kg and 10 mg/kg in the male cynomolgus monkey
PK measurements: compare PK parameters C0, CL, Vdss, Cmax, tmax, t, AUC(0-t), AUC(0-inf), MRT(0-t), MRT(0-inf) for Int 1-4

[3] = Int 1-4 and gemcitabine comparative PK in male cynomolgus monkey (study g); assay type: in vivo; conditions: for AUC(0-t) / half-life / AUC(0-inf) / MRT inf / MRT last / Vd / C0 / clearance / AUC0-last / Cmax / MRT0-inf / MRT0-last / Tmax / t1/2: plasma, male cynomolgus monkey; for MRT inf: read-out: MRT0-inf; for MRT last: read-out: MRT0-last; for Vd: read-out: Vdss
Procedure: Objectives: to compare the plasma pharmacokinetics and stability of Int 1-4 versus gemcitabine in plasma following single intravenous infusion administration of Int 1-4 at 5 mg/kg and 10 mg/kg with equimolar gemcitabine at 2.65 mg/kg and 5.29 mg/kg in male cynomolgous monkeys
PK measurements: compare PK parameters C0, CL, Vdss, Cmax, tmax, t1/2, AUC(0-t), AUC(0-inf), MRT(0-t), MRT(0-inf) for Int 1-4 with gemcitabine

[4] = Metabolic stability in liver hepatocytes, human; assay type: in vitro ADME; conditions: for half-life: read-out: t1/2 mean ± SE
[5] = Metabolic stability in liver hepatocytes, rat; assay type: in vitro ADME
[6] = Metabolic stability in liver hepatocytes, dog; assay type: in vitro ADME
[7] = Metabolic stability in liver hepatocytes, monkey; assay type: in vitro ADME
[8] = Comparative dog plasma PK of Int 1-4 versus gemcitabine (study k); assay type: in vivo; conditions: male beagle dog, after iv gemcitabine 5.29 mg/kg
[9] = in the clinic; cited from earlier work
[10] = after iv Int 1-4 5 mg/kg (study f)
[11] = after iv Int 1-4 5 mg/kg (study f), read-out: C0
[12] = after iv Int 1-4 10 mg/kg (study f)
[13] = after iv Int 1-4 10 mg/kg (study f), read-out: C0
[14] = after iv Int 1-4 5 mg/kg (study g)
[15] = after iv Int 1-4 5 mg/kg (study g), read-out: AUC0-inf
[16] = after iv Int 1-4 10 mg/kg (study g)
[17] = after iv Int 1-4 10 mg/kg (study g), read-out: AUC0-inf
[18] = after iv gemcitabine 2.65 mg/kg
[19] = negative value indicates compound is stable, read-out: t1/2 mean ± SE

Structure (SMILES): Nc1ccn([C@@H]2O[C@H](CO)[C@@H](O)C2(F)F)c(=O)n1 [Gemcitabine, gemcitabine]
- IC50 (UT-SCC-9): 35 nM
- IC50 (UT-SCC-10): 9 nM
- IC50 (UT-SCC-14): 6 nM
- IC50 (UT-SCC-16A): 61 nM
- IC50 (UT-SCC-16B): 99 nM
- AUC0-inf/AUC0-last [1]: 113%
- AUC(0-t) ([1]; mouse): 63.5 ng·h/mL
- half-life ([1]; mouse): 82.8 min
- AUC(0-inf) ([1]; mouse, read-out: AUC0-inf): 71.9 ng·h/mL
- Cmax ([1]; mouse, read-out: Cmax): 73.4 ng/mL
- MRT inf ([1]; mouse, read-out: MRT0-inf): 101 min
- MRT last ([1]; mouse, read-out: MRT0-last): 67.8 min
- Tmax ([1]; mouse, read-out: Tmax): 3.67 min
- clearance [2, 10]: 3.71 mL/min/kg
- half-life [2, 10]: 2.82 min
- C0 [2, 11]: 20.5 ng/mL
- MRT inf [2, 10]: 20.5 h
- MRT last [2, 10]: 11.4 min
- Vd [2, 10]: 0.11 L/kg
- clearance [2, 12]: 15.5 mL/min/kg
- half-life [2, 12]: 4.8 min
- C0 [2, 13]: 53.4 ng/mL
- MRT inf [2, 12]: 53.4 h
- MRT last [2, 12]: 18 min
- Vd [2, 12]: 0.19 L/kg
- AUC(0-t) [3, 14]: 5.37 ng·h/mL
- half-life [3, 14]: 9 min
- AUC(0-inf) [3, 15]: 8.13 ng·h/mL
- MRT inf [3, 14]: 14.4 min
- MRT last [3, 14]: 9 min
- Vd [3, 14]: 0.349 L/kg
- AUC(0-t) [3, 16]: 16.2 ng·h/mL
- half-life [3, 16]: 10.8 min
- AUC(0-inf) [3, 17]: 17.5 ng·h/mL
- MRT inf [3, 16]: 15.6 min
- MRT last [3, 16]: 12.6 min
- AUC(0-t) [3, 18]: 154 ng·h/mL
- C0 [3, 18]: 17000 ng/mL
- clearance [3, 18]: 323 mL/min/kg
- half-life [3, 18]: 1.2 min
- AUC(0-inf) ([3]; after iv gemcitabine 2.65 mg/kg, read-out: AUC0-inf): 154 ng·h/mL
- MRT inf [3, 18]: 0.6 min
- MRT last [3, 18]: 0.6 min
- Vd [3, 18]: 0.221 L/kg
- Slope Mean ± SE [4]: −0.00684 ± 0.001905
- half-life [4]: 101 ± 28.2 min
- Slope Mean ± SE [5]: 0.00055 ± 0.001504
- Slope Mean ± SE [6]: 0.000126 ± 0.001156
- Slope Mean ± SE [7]: 0.001817 ± 0.001897
- MRT inf ([8]; read-out: MRT0-inf): 150 min
- injected dose recovered in the urine [9]: 90%
- share of the dose recovered in urine found as this species [9]: 1%

- AUC(0-inf) [2, 10]: 5470 ng·h/mL
- AUC(0-t) [2, 10]: 5460 ng·h/mL
- clearance [2, 10]: 15.4 mL/min/kg
- half-life [2, 10]: 43.8 min
- C0 [2, 11]: 81000 ng/mL
- MRT inf [2, 10]: 0.33 h
- MRT last [2, 10]: 18.6 min
- Vd [2, 10]: 0.301 L/kg
- AUC(0-inf) [2, 12]: 17400 ng·h/mL
- AUC(0-t) [2, 12]: 17400 ng·h/mL
- clearance [2, 12]: 9.65 mL/min/kg
- half-life [2, 12]: 55.8 min
- C0 [2, 13]: 166000 ng/mL
- MRT inf [2, 12]: 0.44 h
- MRT last [2, 12]: 25.8 min
- Vd [2, 12]: 0.253 L/kg
- fold longer half-life than gemcitabine ([3]; male cynomolgus monkey plasma): ~50 fold
- AUC(0-t) [3, 14]: 5950 ng·h/mL
- C0 [3, 14]: 99700 ng/mL
- clearance [3, 14]: 14.6 mL/min/kg
- half-life [3, 14]: 45 min
- AUC(0-inf) [3, 15]: 5960 ng·h/mL
- MRT inf [3, 14]: 19.8 min
- MRT last [3, 14]: 19.2 min
- Vd [3, 14]: 0.287 L/kg
- AUC(0-t) [3, 16]: 11900 ng·h/mL
- C0 [3, 16]: 146000 ng/mL
- clearance [3, 16]: 15 mL/min/kg
- half-life [3, 16]: 59.4 min
- AUC(0-inf) [3, 17]: 11900 ng·h/mL
- MRT inf [3, 16]: 23.4 min
- MRT last [3, 16]: 22.8 min
- Vd [3, 16]: 0.349 L/kg
- Slope Mean ± SE [4]: −0.003031 ± 0.001361
- half-life [4]: 229 ± 103 min
- Slope Mean ± SE [5]: −0.007701 ± 0.001794
- half-life [5, 19]: 90 ± 21 min
- Slope Mean ± SE [6]: −0.00433 ± 0.001287
- half-life [6, 19]: 160 ± 47.6 min
- Slope Mean ± SE [7]: −0.005018 ± 0.001425
- half-life [7, 19]: 138 ± 39.2 min
Structure (SMILES): COc1cc(OC)c2oc(COC(=O)Nc3ccn([C@@H]4O[C@H](CO)[C@@H](O)C4(F)F)c(=O)n3)cc2c1 [Int 1-4, (5,7-di(methoxy)benzofuran-2-yl)methyl (1-((2R,4R,5R)-3,3-difluoro-4-hydroxy-5-(hydroxymethyl)tetrahydrofuran-2-yl)-2-oxo-1,2-dihydropyrimidin-4-yl)carbamate]
- IC50 (UT-SCC-9): 39 nM
- IC50 (UT-SCC-10): 9 nM
- IC50 (UT-SCC-14): 13 nM
- IC50 (UT-SCC-16A): 138 nM
- IC50 (UT-SCC-16B): 162 nM

- AUC0-inf/AUC0-last [1]: 146%
- AUC0-last [1]: 942 ng·h/mL
- AUC(0-inf) [1]: 1403 ng·h/mL
- Cmax [1]: 168 ng/mL
- MRT0-inf [1]: 449 min
- MRT0-last [1]: 220 min
- T1/2 [1]: 313 min
- Tmax [1]: 240 min
- C0 [2, 10]: 296 ng/mL
- MRT0-last [2, 10]: 30.60 h
- t1/2 [2, 10]: 40.2 min
- C0 [2, 12]: 747 ng/mL
- MRT0-last [2, 12]: 63.00 h
- t1/2 [2, 12]: 45 min
- AUC0-last [3, 14]: 4117 ng·h/mL
- AUC(0-inf) [3, 14]: 5555 ng·h/mL
- Cmax [3, 14]: 302 ng/mL
- MRT0-inf [3, 14]: 1441 min
- MRT0-last [3, 14]: 618.6 min
- Tmax [3, 14]: 101 min
- t1/2 [3, 14]: 1012 min
- AUC0-last [3, 16]: 5120 ng·h/mL
- AUC(0-inf) [3, 16]: 7903 ng·h/mL
- Cmax [3, 16]: 595 ng/mL
- MRT0-inf [3, 16]: 1081 min
- MRT0-last [3, 16]: 498 min
- Tmax [3, 16]: 40.2 min
- t1/2 [3, 16]: 772.2 min
- AUC0-last [3, 18]: 7703 ng·h/mL
- AUC(0-inf) [3, 18]: 8837 ng·h/mL
- Cmax [3, 18]: 1973 ng/mL
- MRT0-inf [3, 18]: 561 min
- MRT0-last [3, 18]: 385 min
- Tmax [3, 18]: 5.4 min
- t1/2 [3, 18]: 353 min
- t1/2 [8]: 513 min
Structure (SMILES): O=c1ccn(C2OC(CO)C(O)C2(F)F)c(=O)[nH]1 (stereo not drawn) [dFdU]
- share of the dose recovered in urine found as this species [9]: 99%
